Values joined by “and” are separate entries in the source; they are usually repeats but may differ in a detail not shown here. Equal values may be shown once. Where a name gives a salt, the structure may show the parent alone. Read-outs that look alike come from different tables or passages of the source.
Experiments:
human 5-HT2C receptor [1] = target: T1, human 5-HT2C receptor (Homo sapiens, UniProt P28335); assay: Competition binding to the human 5-HT2C receptor ([3H]mesulergine, HeLa-5-HT2C membranes); settings: for Selectivity 5-HT2C/2A (binding, in parentheses): from Ki values, Table 1; for Ki: human receptor, [3H]mesulergine displacement, no unit in the table, nM, read-out: 5-HT2C Ki (in parentheses) (converted)
T1 construct: expressed in transfected cells; host or cells: HeLa (HeLa-5-HT2C cell line)
T1 sequence (P28335 33-458): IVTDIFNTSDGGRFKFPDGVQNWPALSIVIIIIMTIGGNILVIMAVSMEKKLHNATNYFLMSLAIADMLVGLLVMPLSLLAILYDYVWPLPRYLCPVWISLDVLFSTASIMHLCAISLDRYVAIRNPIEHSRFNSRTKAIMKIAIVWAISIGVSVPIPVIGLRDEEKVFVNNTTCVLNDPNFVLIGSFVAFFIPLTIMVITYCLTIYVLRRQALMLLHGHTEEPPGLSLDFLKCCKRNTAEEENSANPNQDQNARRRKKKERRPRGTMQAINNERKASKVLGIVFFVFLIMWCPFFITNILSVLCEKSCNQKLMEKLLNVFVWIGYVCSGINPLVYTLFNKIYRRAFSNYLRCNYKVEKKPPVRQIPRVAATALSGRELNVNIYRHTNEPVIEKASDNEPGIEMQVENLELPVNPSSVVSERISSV

human 5-HT2A receptor [2] = target: T2, human 5-HT2A receptor (Homo sapiens, UniProt P28223); assay: Ca2+ mobilization in CHO h5-HT2A cells; assay type: cell-based; settings: for EC50: Ca2+ mobilization, no unit in the table, nM, read-out: 5-HT2A EC50 (in parentheses) (converted); for Selectivity 5-HT2A/2C (functional): from EC50 values, Table 2; for Emax: relative efficacy, % of response to 5-HT
T2 construct: expressed in transfected cells; host or cells: CHO (CHO-5-HT2A cell line)
T2 sequence (P28223 whole entry): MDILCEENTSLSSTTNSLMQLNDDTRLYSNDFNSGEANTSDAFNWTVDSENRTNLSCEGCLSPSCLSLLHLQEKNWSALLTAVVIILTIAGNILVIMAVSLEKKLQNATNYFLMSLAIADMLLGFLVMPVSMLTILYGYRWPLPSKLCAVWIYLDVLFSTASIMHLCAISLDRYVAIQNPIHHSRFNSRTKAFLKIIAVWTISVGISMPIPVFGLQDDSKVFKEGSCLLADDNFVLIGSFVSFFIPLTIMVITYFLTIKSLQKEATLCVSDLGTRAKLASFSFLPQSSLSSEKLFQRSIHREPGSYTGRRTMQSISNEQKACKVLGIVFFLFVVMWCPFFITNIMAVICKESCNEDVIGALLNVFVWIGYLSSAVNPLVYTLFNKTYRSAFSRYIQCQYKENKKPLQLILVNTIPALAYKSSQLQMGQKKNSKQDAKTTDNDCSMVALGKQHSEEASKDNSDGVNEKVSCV

human 5-HT2A receptor [3] = target: T2, human 5-HT2A receptor; assay: Competition binding to the human 5-HT2A receptor ([3H]ketanserin, CHO-5-HT2A membranes); settings: for Selectivity 5-HT2A/2C (binding): from Ki values, Table 1; for Ki: human receptor, [3H]ketanserin displacement, no unit in the table, nM, read-out: 5-HT2A Ki (in parentheses) (converted)
human 5-HT2C receptor [4] = target: T1, human 5-HT2C receptor; assay: Ca2+ mobilization in HeLa h5-HT2C cells; assay type: cell-based
human 5-HT2B receptor = human 5-HT2B receptor (Homo sapiens, UniProt P41595); assay: Competition binding to the human 5-HT2B receptor ([3H]LSD, CHO-5-HT2B membranes)
Sequence of human 5-HT2B receptor (P41595 whole entry): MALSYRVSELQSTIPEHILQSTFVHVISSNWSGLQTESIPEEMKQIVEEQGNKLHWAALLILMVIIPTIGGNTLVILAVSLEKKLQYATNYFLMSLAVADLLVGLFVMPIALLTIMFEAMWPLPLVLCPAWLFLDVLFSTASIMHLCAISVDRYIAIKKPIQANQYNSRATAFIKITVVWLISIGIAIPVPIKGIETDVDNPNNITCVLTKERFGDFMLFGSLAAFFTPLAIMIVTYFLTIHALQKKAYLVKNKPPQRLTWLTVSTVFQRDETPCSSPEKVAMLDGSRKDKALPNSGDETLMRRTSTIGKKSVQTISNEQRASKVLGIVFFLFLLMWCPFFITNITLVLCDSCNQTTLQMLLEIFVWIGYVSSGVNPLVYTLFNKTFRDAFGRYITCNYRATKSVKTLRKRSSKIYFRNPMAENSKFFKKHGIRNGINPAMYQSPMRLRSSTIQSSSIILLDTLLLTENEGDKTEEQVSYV

5-HT2C receptor = target: 5-HT2C receptor; set-up: method as in PMID 27216487; settings: reported affinity; cited from earlier work
5-HT2A receptor = target: 5-HT2A receptor; set-up: method as in PMID 27216487; settings: reported affinity; cited from earlier work
[5] = Ca2+ mobilization; no unit in the table, nM; read-out: 5-HT2C EC50 (in parentheses) (converted)

In the case of `COc1ccc(CNCCc2c[nH]c3ccccc23)c(OC)c1` (as salt: hydrochloride) [Compound 32, N-(2,4-Dimethoxybenzyl)-[2-(1H-indol-3-yl)ethyl]amine], the melting point is reported as 184 to 186 °C.
With `Oc1cccc(Br)c1CNCCc1c[nH]c2ccccc12` (as salt: hydrochloride) [Compound 33, N-(6-Bromo-2-hydroxybenzyl)-[2-(1H-indol-3-yl)ethyl]amine] the melting point was 195 to 196 °C.
`Oc1c(Br)cc(Br)cc1CNCCc1c[nH]c2ccccc12` (as salt: hydrochloride) [Compound 35, N-(3,5-Dibromo-2-hydroxybenzyl)-[2-(1H-indol-3-yl)ethyl]amine] showed a melting point of 183 to 184 °C.
With `COc1cccc(CNCCc2c[nH]c3ccccc23)c1O` (as salt: succinate) [Compound 19, N-(2-Hydroxy-3-methoxybenzyl)-[2-(1H-indol-3-yl)ethyl]amine] the melting point was 109 to 111 °C.
In the case of `Oc1c(Br)cccc1CNCCc1c[nH]c2ccccc12` (as salt: succinate) [Compound 21, N-(3-Bromo-2-hydroxybenzyl)-[2-(1H-indol-3-yl)ethyl]amine], the melting point is reported as 141 to 142 °C.
Molecule `Oc1c(F)cccc1CNCCc1c[nH]c2ccccc12` (as salt: succinate) [Compound 22, N-(3-Fluoro-2-hydroxybenzyl)-[2-(1H-indol-3-yl)ethyl]amine] has a melting point of 151 to 152 °C.
`Oc1cccc(F)c1CNCCc1c[nH]c2ccccc12` (as salt: succinate) [Compound 34, N-(6-Fluoro-2-hydroxybenzyl)-[2-(1H-indol-3-yl)ethyl]amine] showed a melting point of 159 to 161 °C.
In the case of `COc1ccc2[nH]cc(CCNCc3ccccc3)c2c1` [Compound 37, N-Benzyl-[2-(5-methoxy-1H-indol-3-yl)ethyl]amine], the “Selectivity 5-HT2C/2A (binding, in parentheses)” value (human 5-HT2C receptor [1]) is reported as 0.34, the Ki (human 5-HT2C receptor [1]) is reported as 95.5 nM and the EC50 (human 5-HT2A receptor [2]) is reported as 20.4 nM. For the same molecule, the “Selectivity 5-HT2A/2C (functional)” value (human 5-HT2A receptor [2]) was 0.71, the Emax (human 5-HT2A receptor [2]) was 63.2 ± 1.44% and the “Selectivity 5-HT2A/2C (binding)” value (human 5-HT2A receptor [3]) was 2.93. For the same molecule, the Ki (human 5-HT2A receptor [3]) was 33.1 nM, the EC50 (human 5-HT2C receptor [4]; [5]) was 14.4 nM and the Emax (human 5-HT2C receptor [4]; HeLa; read-out: 5-HT2C % Emax) was 113 ± 3.47%. For the same molecule, the “Selectivity 5-HT2C/2A (functional, in parentheses)” value (human 5-HT2C receptor [4]; from EC50 values, Table 2) was 1.41 and the Ki (human 5-HT2B receptor) was 16.6 nM.
For `COc1ccc2[nH]cc(CCNCc3ccccc3Cl)c2c1` [Compound 39, N-(2-Chlorobenzyl)-[2-(5-methoxy-1H-indol-3-yl)ethyl]amine], the “Selectivity 5-HT2C/2A (binding, in parentheses)” value (human 5-HT2C receptor [1]) was 0.18, the Ki (human 5-HT2C receptor [1]) was 74.1 nM and the EC50 (human 5-HT2A receptor [2]) was 12 nM. For the same molecule, the “Selectivity 5-HT2A/2C (functional)” value (human 5-HT2A receptor [2]) was 6.76, the Emax (human 5-HT2A receptor [2]) was 47.7 ± 1.57% and the “Selectivity 5-HT2A/2C (binding)” value (human 5-HT2A receptor [3]) was 5.51. It also gave a Ki (human 5-HT2A receptor [3]) of 13.5 nM, an EC50 (human 5-HT2C receptor [4]; [5]) of 81.3 nM and an Emax (human 5-HT2C receptor [4]; HeLa; read-out: 5-HT2C % Emax) of 106 ± 4.32%. For the same molecule, the “Selectivity 5-HT2C/2A (functional, in parentheses)” value (human 5-HT2C receptor [4]; from EC50 values, Table 2) was 0.15 and the Ki (human 5-HT2B receptor) was 37.1 nM.
With `COc1ccc2[nH]cc(CCNCc3ccccc3Br)c2c1` [Compound 40, N-(2-Bromobenzyl)-[2-(5-methoxy-1H-indol-3-yl)ethyl]amine] the “Selectivity 5-HT2C/2A (binding, in parentheses)” value (human 5-HT2C receptor [1]) was 0.18, the Ki (human 5-HT2C receptor [1]) was 70.8 nM and the EC50 (human 5-HT2A receptor [2]) was 29.5 nM. For the same molecule, the “Selectivity 5-HT2A/2C (functional)” value (human 5-HT2A receptor [2]) was 0.93, the Emax (human 5-HT2A receptor [2]) was 44.8 ± 0.99% and the “Selectivity 5-HT2A/2C (binding)” value (human 5-HT2A receptor [3]) was 5.66. The Ki (human 5-HT2A receptor [3]) was 12.3 nM, the EC50 (human 5-HT2C receptor [4]; [5]) was 27.5 nM and the Emax (human 5-HT2C receptor [4]; HeLa; read-out: 5-HT2C % Emax) was 105 ± 4.32%. For the same molecule, the “Selectivity 5-HT2C/2A (functional, in parentheses)” value (human 5-HT2C receptor [4]; from EC50 values, Table 2) was 1.07 and the Ki (human 5-HT2B receptor) was 28.8 nM.
With `COc1ccc2[nH]cc(CCNCc3ccc(Br)cc3)c2c1` [Compound 41, N-(4-Bromobenzyl)-[2-(5-methoxy-1H-indol-3-yl)ethyl]amine] the “Selectivity 5-HT2C/2A (binding, in parentheses)” value (human 5-HT2C receptor [1]) was 1.02, the Ki (human 5-HT2C receptor [1]) was 380 nM and the EC50 (human 5-HT2A receptor [2]) was 1860 nM. The “Selectivity 5-HT2A/2C (functional)” value (human 5-HT2A receptor [2]) was 0.071, the Emax (human 5-HT2A receptor [2]) was 60.5 ± 2.41% and the “Selectivity 5-HT2A/2C (binding)” value (human 5-HT2A receptor [3]) was 0.98. For the same molecule, the Ki (human 5-HT2A receptor [3]) was 389 nM, the EC50 (human 5-HT2C receptor [4]; [5]) was 132 nM and the Emax (human 5-HT2C receptor [4]; HeLa; read-out: 5-HT2C % Emax) was 93.5 ± 3.05%. The “Selectivity 5-HT2C/2A (functional, in parentheses)” value (human 5-HT2C receptor [4]; from EC50 values, Table 2) was 14.1 and the Ki (human 5-HT2B receptor) was 155 nM.
In the case of `COc1ccc(O)c(CNCCc2c[nH]c3ccc(OC)cc23)c1` [Compound 42, N-(2-Hydroxy-5-methoxybenzyl)-[2-(5-methoxy-1H-indol-3-yl)ethyl]amine], the “Selectivity 5-HT2C/2A (binding, in parentheses)” value (human 5-HT2C receptor [1]) is reported as 3.31, the Ki (human 5-HT2C receptor [1]) is reported as 40.7 nM and the “Selectivity 5-HT2A/2C (functional)” value (human 5-HT2A receptor [2]) is reported as 0.91. The Emax (human 5-HT2A receptor [2]) was 43.6 ± 0.9%, the “Selectivity 5-HT2A/2C (binding)” value (human 5-HT2A receptor [3]) was 0.30 and the Ki (human 5-HT2A receptor [3]) was 135 nM. For the same molecule, the Emax (human 5-HT2C receptor [4]; HeLa, read-out: 5-HT2C % Emax) was 89.4 ± 3.86%, the “Selectivity 5-HT2C/2A (functional, in parentheses)” value (human 5-HT2C receptor [4]; from EC50 values, Table 2) was 1.1 and the Ki (human 5-HT2B receptor) was 20.4 nM.
For `COc1ccc2[nH]cc(CCNCc3cc(F)ccc3O)c2c1` [Compound 43, N-(5-Fluoro-2-hydroxybenzyl)-[2-(5-methoxy-1H-indol-3-yl)ethyl]amine], the “Selectivity 5-HT2C/2A (binding, in parentheses)” value (human 5-HT2C receptor [1]) was 0.10, the Ki (human 5-HT2C receptor [1]) was 39.8 nM and the EC50 (human 5-HT2A receptor [2]) was 1.4 nM and 1.38 nM. The “Selectivity 5-HT2A/2C (functional)” value (human 5-HT2A receptor [2]) was 2.63, the Emax (human 5-HT2A receptor [2]) was 83.3 ± 2.26% and the “Selectivity 5-HT2A/2C (binding)” value (human 5-HT2A receptor [3]) was 9.66. It also gave a Ki (human 5-HT2A receptor [3]) of 3.98 nM, an EC50 (human 5-HT2C receptor [4]; [5]) of 3.63 nM and an Emax (human 5-HT2C receptor [4]; HeLa; read-out: 5-HT2C % Emax) of 106 ± 3.05%. The “Selectivity 5-HT2C/2A (functional, in parentheses)” value (human 5-HT2C receptor [4]; from EC50 values, Table 2) was 0.38 and the Ki (human 5-HT2B receptor) was 8.91 nM.
In the case of `CC(C)N(CCc1c[nH]c2ccccc12)C(C)C` [N,N-diisopropyltryptamine], the Ki (5-HT2C receptor) is listed as 6500 nM and the Ki (5-HT2A receptor) is listed as 1200 nM.
For `CN(C)CCc1c[nH]c2ccccc12` [N,N-dimethyltryptamine], the Ki (5-HT2C receptor) is given as 424 nM and the Ki (5-HT2A receptor) is given as 237 nM.

Reference: PMC6328172, “5-HT2 receptor binding, functional activity and selectivity in N-benzyltryptamines” (PLoS ONE, 2019)
